In patent US9057093B2 (priority 2010, dated 2015):
Like-named read-outs stand apart in the source and are kept apart here.

Test system: Legionella pneumophila strains
Assay type: cell-based
Conditions: for optimal dose: dose giving best improvement in latency and/or growth rate
[1] = doses of between 10^−6 to 10^−2 mM, especially 10^−4 mM, numerous strains
[2] = supplemented medium vs reference medium (YEC), doses between 0.01 and 5% weight of compound on volume of sample, variety of strains

Compound | latency and/or growth rate [1] | latency and/or growth rate (doses of between 1 to 10^−4 mM, especially around 10^−2 mM, a number of strains) | optimal dose | latency and/or growth rate [2]
[Ca+2].[Cl-].[Cl-] [calcium chloride] | Improvements in latency and/or growth rate | – | – | –
[Cl-].[Cl-].[Mg+2] [magnesium chloride] | Improvements in latency and/or growth rate | – | – | –
[Cl-].[K+] [potassium chloride] | – | Improvements in latency and/or growth rate | – | –
N[C@@H](CO)C(=O)O [serine] | – | – | around 1 g per litre | improvements in latency and/or growth rate
C[C@@H](O)[C@H](N)C(=O)O [threonine] | – | – | around 1 g per litre | improvements in latency and/or growth rate
